Like-named read-outs stand apart in the source and are kept apart here.
How the values were obtained:
hCES2A = biological target: T1, hCES2A (Homo sapiens, UniProt O00748); test: Inhibition assay on hCES2A (fluorescent substrate FD); format: biochemical; details: for selective inhibitory activity on hCES2A: 10 μM, selectivity screening; for IC50: mean ± SD, n = 3
T1 sequence (O00748 27-559): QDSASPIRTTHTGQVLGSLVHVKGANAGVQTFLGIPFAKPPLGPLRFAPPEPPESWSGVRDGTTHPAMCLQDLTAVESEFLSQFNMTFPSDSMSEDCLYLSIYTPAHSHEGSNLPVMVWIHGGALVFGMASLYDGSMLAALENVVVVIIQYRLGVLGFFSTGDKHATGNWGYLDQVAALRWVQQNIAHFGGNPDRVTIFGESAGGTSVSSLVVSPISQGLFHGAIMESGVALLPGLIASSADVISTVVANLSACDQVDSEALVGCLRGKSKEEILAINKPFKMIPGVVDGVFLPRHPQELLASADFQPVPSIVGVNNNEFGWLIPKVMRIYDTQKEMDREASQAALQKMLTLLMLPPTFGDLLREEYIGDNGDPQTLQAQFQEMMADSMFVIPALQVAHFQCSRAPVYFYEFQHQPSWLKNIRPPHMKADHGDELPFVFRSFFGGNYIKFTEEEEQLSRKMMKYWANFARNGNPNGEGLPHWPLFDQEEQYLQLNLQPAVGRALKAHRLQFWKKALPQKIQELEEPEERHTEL
Procedure: 1. Detailed experimental, materials, and methods
The household library of covalent fragments including D and F was from Organic Chemistry […]
Fig. S1. Partial fragment molecules of a household library targeting to serine. […]
Inhibition assay on hCES2A
Human carboxylesterase 2 (hCES2A) inhibition assays were conducted using FD, a known fluorescent substrate. 3 Briefly, hCES2A (0.4 μg/mL, final concentration) was preincubated with analytes/DMSO (as a control group) in PBS (pH 7.4) at 37 °C for 3 min. This was followed by adding the substrate FD (4 μM, final concentration) in the incubation mixture and allowing it to react for 30 min. The fluorescent signals (excitation/emission, 480 nm/525 nm) were continuously recorded by a microplate reader (SpectraMax iD3Molecular Devices, Austria). […]

Notum = biological target: T2, Notum (Homo sapiens, UniProt Q6P988); test: Inhibition assay on Notum (substrate OPTS); format: biochemical; details: 10 μM, selectivity screening
T2 sequence (Q6P988 20-496): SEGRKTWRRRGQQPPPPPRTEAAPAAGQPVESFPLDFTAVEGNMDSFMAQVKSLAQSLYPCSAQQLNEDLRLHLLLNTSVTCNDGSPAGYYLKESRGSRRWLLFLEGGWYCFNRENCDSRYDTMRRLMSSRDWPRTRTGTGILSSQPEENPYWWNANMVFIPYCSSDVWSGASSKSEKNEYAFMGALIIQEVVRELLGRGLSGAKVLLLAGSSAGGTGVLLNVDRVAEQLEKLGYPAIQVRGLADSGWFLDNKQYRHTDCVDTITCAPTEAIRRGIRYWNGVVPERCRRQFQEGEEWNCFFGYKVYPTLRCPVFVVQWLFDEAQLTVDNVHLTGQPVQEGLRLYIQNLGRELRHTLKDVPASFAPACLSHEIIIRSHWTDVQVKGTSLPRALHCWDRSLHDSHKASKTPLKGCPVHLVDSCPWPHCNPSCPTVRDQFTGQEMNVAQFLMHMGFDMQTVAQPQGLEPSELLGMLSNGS
Procedure: fluorogenic probe. 4 Briefly, the incubation mixtures (0.1 mL) contained Tris-HCl buffer, hPL solution (0.25 μg/mL, final concentration), porcine bile salt (0.1 mg/mL, final concentration) and each inhibitor (with different concentrations). After preincubated at 37 °C for 3 min, DDAO-ol (20 µM, final concentration) was added to initial reaction. The fluorescent signals of hydrolytic product were quantified by using the microplate reader (Spectra Max M4, Austria), with the wavelength of 600 nm and 660 nm for excitation and emission, respectively.
Inhibition assay on Notum
OPTS, a known fluorogenic probe, was used as the substrate to assess the residual activities of Notum in the presence of each tested compound. […] After preincubated at 37 °C for 1 min, OPTS was added to initiate the hydrolytic reaction and the multi-mode microplate reader (SpectraMax iD3, Molecular Devices, Austria) was used to analyze the florescence signals of the […]
The F-3, F-4, F-10-bound peptides was analysed using the nanoLC-MS/MS system, respectively.6 The purified hCES1A (150 μg, final content) was co-incubated with the small molecule inhibitor F-3/ F-4/ F-10 (100 μM, final concentration) at 4 °C and 25 °C, respectively, for 4h. […]

Structure (SMILES) | selective inhibitory activity on hCES2A (hCES2A) | response to Notum (Notum) | IC50 (hCES2A; 3 min incubation, read-out: hCES2A IC50 3 min) [nM] | time-dependent inhibition against hCES2A (hCES2A; 3 min vs 33 min incubation) | IC50 (hCES2A; 33 min incubation, read-out: hCES2A IC50 33 min) [nM]
O=S(=O)(F)c1ccc(Br)cc1 [D, 4-bromobenzenesulfonyl fluoride] | decent selective inhibitory activities | no potent responses |  |  | 
O=C(c1ccccc1)C(F)(F)F [F, 2,2,2-trifluoroacetophenone] | decent selective inhibitory activities | no potent responses | 160 ± 18.4 | no significant time-dependent inhibition | 336 ± 37.2
